According to patent US20120202825A1, “Soluble Salts of Thieno [2,3-d] Pyrimidine Derivatives” (priority 2011, published 2012):

Assays:
[1] = Storage at 40° C./75% RH (XRPD, HPLC purity, colour); assay type: physicochemical; conditions: 4 weeks at 40° C./75% RH under ambient light conditions
[2] = test system: stress-induced accelerated colonic transit; test: Water avoidance stress (WAS) fecal pellet output, model of increased colonic transit; assay type: in vivo, rat
Method: Preliminary testing in the water avoidance stress model confirmed that there exists an association between stress and altered colonic motility. Fecal pellet output was measured by counting the total number of fecal pellets produced during 1 hour of WAS. Using the WAS model, the effect of MCI-225 was compared to the effects of ondansetron (5-HT3 antagonist) or nisoxetine (noradrenaline reuptake inhibitor—NARI) to affect fecal pellet output.
Adult male F-344 rats, supplied by Charles River Laboratories and weighing 270-350 g, were used to complete this study. The rats were housed 2 per cage under standard conditions. Following one to two weeks of acclimatization to the animal facility, the rats were brought to the laboratory and handled daily for another week to acclimatize them to laboratory conditions and to the research associate who performed the studies. All procedures used in this study were approved in accordance with facility standards.
All rats underwent sham stress (1-hour in stress chamber without water) for 2-4 consecutive days before undergoing WAS (sham was performed until rats produced 0-1 pellet per hour for 2 consecutive days). At the end of the 1-hour stress period, the fecal pellets were counted and recorded.
WAS causes an acceleration of colonic transit, which can be quantified by counting the number of fecal pellets, produced during the stress procedure. Rats were placed for 1-hour into a stress chamber onto a raised platform 7.5 cm×7.5 cm×9 cm (L×W×H) in the center of a stress chamber filled with room temperature water 8 cm in depth. The stress chamber was constructed from a rectangular plastic tub (40.2×60.2×31.2 cm).
Control drugs for this study were ondansetron and nisoxetine. Ondansetron was supplied from APIN Chemicals LTD. Nisoxetine was supplied by Tocris. MCI-225 was provided by Mitsubishi Pharma Corp. All drugs were dissolved in a vehicle of 100% propylene glycol (1,2-propanediol) by sonicating for a period of 10 minutes. […]
Statistical significance was assessed using one-way ANOVA followed by Tukey post-test. […]

[3] = test system: acetic acid-induced colonic hypersensitivity; test: Visceromotor response to colorectal distension, acetic acid-induced colonic hypersensitivity; assay type: in vivo, rat
Method: A 10 min recovery was allowed between distensions.
Adult male rats were used in the study.
Ten minute recovery periods were allowed following each distension.
Statistical significance of the treatment groups was assessed using one-way ANOVA followed by Tukey post-test. […] (*) p<0.05, (**) p<0.01, (***) p<0.001

cisplatin-induced emesis = test: Cisplatin-induced emesis in the ferret; assay type: in vivo, ferret (Mustela putario furo); conditions: 5 mg/kg and 10 mg/kg i.p.
Method: Adult male ferrets (Mustela putario furo) weighing 1200-1880 g were purchased from Triple F Farms (Sayre, Pa.) and housed in individual cages at standardized conditions (12:12 h light/dark cycle and 21-23° C.). Prior to the experiments, the ferrets were allowed a 7-10 day acclimatization period to the animal facility. The ferrets were fed a carnivore diet with free access to food and water throughout the course of the study. The use of the ferret model of emesis and the drug treatment were preapproved in accordance with facility standards. A cisplatin solution was prepared by adding preheated (70° C.) saline to cisplatin powder (Sigma-Aldrich Co.) and stirring or sonicating at 40° C. until dissolved. Following administration of the cisplatin and either MCI-225, ondansetron or vehicle alone, the occurrence of retching and vomiting was monitored for a period of 6 hours. Retching was defined as the number of forceful rhythmic contractions of the abdomen occurring with the animal in characteristic posture, but not resulting in the expulsion of upper gastrointestinal tract contents (Watson et al., British Journal of Pharmacology, 115(1): 84-94 (1994)). […] The latency of the retching or vomiting response and the number of episodes were recorded for each animal and summarized for each experimental group (Wright et al., Infect. Immun., 68(4): 2386-9 (2000)). […]

small intestinal transit = test: Small Intestinal Transit Rodent Model (charcoal meal); assay type: in vivo, rat
Method: Following an overnight fast, rats were brought to the laboratory in their home cages and received an i.p. injection of one of the following: […] Control rats received no treatment. The treated rats were placed back in the home cages and after 30 min, were fed a 2 mL charcoal meal via an oral gavage. Small intestinal transit was measured following 15 min test-period. Each rat was placed briefly in a glass chamber with IsoFlo for anesthesia and sacrificed. The stomach and the small intestine were removed and the total length of the small intestine was measured. Transit was then measured as the distance that the charcoal meal had traveled along the small intestine and expressed as % of the total length. Animals were randomly assigned to experimental groups and experiments were performed as illustrated in Table 3. Ondansetron was supplied from APIN Chemicals LTD. […] MCI-225 was provided by Mitsubishi Pharma Corp. All drugs were dissolved in a vehicle of 100% propylene glycol (1,2-Propanediol) by sonicating for 10 min. Propylene glycol was obtained from Sigma Chemical Co. Ondansetron, a 5-HT3-receptor antagonist was dosed i.p. at 1, 5, and 10 mg/kg. […] All doses were delivered in a final volume of 200 μL. Animals in the vehicle control group received 200 μL of 100% Propylene glycol and animals in the normal control group were untreated. Adult male F-344 rats (230-330 g) were used in the study. The rats were housed 2 per cage under standard conditions. The animals were fed a standard rodent diet and food and water were provided “ad libitum”. Rats were allowed to acclimatize to the animal facility for one week prior to the transit experiments. […] The distance traveled by the charcoal meal was quantified as a percent of the small intestinal length, using the following equation: Transit(%)=cm traveled by meal/cm total small intestinal length×100 […] […] Differences between individual dose groups within treatments and comparisons between drug-treated and vehicle-treated groups were determined using an unpaired t test considering that when % is used as a relative unit, t-statistic is relevant. […]

## 4-(2-fluorophenyl)-6-methyl-2-(piperazin-1-yl)thieno[2,3-d]pyrimidine hydrochloride [MCI-225]
[1]
  colour of material surface after storage: gone yellow

## Cc1nccn1CC1CCc2c(c3ccccc3n2C)C1=O (stereo not drawn) [Ondansetron]
[2]; rats, 1, 5 and 10 mg/kg i.p.
  stress-induced fecal pellet output during 1 hour of WAS: dose-dependent inhibition
[3]; rats, 10 mg/kg i.p. (highest dose)
  responses to moderate (30 mmHg) and high (60 mmHg) intraluminal pressure: did not abolish the responses
[3]; rats, 1, 5 or 10 mg/kg i.p.
  behavioral activity of the rats: No significant changes
[3]; rats, 1, 5 or 10 mg/kg i.p., all distension pressures, vs vehicle
  number of abdominal contractions (visceromotor response to colorectal distension): dose-dependent decrease
cisplatin-induced emesis
  latency of the first emetic response following cisplatin treatment: increase in the latency
  number of emetic events induced by cisplatin: dose-dependently reduced
Small intestinal transit; rats, 1, 5 or 10 mg/kg i.p.
  small intestinal transit: significant reduction

## CNCCC(Oc1ccccc1OC)c1ccccc1 (stereo not drawn) [Nisoxetine]
[2]; rats, 3, 10 and 30 mg/kg i.p.
  WAS-induced fecal pellet output during 1 hour: reduced by all doses
[2]; rats, 10 and 30 mg/kg i.p.
  fecal pellets produced during WAS compared to the vehicle treated group: significantly fewer
Small intestinal transit; rats, 30 mg/kg i.p.
  small intestinal transit: almost completely inhibited
Small intestinal transit; rats, 3 or 10 mg/kg i.p.
  small intestinal transit: tendency to decrease
